The values that follow come from PMC11233931, “Remodeling tumor‐associated macrophage for anti‐cancer effects by rational design of irreversible inhibition of mitogen‐activated protein kinase‐activated protein kinase 2” (MedComm, 2024).

The term inhibition denotes the relative decrease from the control value, in per cent.

What all share (assay): Eurofins kinase selectivity profile against 380 other human recombinant kinases (Table S2)
Assay type in all cases: biochemical

The target in experiment [1] is T1, 380 human recombinant protein kinases (Homo sapiens, UniProt P54760).
T1 construct: purchased Eurofins (Celle Lévescault)
T1 sequence (P54760 16-987): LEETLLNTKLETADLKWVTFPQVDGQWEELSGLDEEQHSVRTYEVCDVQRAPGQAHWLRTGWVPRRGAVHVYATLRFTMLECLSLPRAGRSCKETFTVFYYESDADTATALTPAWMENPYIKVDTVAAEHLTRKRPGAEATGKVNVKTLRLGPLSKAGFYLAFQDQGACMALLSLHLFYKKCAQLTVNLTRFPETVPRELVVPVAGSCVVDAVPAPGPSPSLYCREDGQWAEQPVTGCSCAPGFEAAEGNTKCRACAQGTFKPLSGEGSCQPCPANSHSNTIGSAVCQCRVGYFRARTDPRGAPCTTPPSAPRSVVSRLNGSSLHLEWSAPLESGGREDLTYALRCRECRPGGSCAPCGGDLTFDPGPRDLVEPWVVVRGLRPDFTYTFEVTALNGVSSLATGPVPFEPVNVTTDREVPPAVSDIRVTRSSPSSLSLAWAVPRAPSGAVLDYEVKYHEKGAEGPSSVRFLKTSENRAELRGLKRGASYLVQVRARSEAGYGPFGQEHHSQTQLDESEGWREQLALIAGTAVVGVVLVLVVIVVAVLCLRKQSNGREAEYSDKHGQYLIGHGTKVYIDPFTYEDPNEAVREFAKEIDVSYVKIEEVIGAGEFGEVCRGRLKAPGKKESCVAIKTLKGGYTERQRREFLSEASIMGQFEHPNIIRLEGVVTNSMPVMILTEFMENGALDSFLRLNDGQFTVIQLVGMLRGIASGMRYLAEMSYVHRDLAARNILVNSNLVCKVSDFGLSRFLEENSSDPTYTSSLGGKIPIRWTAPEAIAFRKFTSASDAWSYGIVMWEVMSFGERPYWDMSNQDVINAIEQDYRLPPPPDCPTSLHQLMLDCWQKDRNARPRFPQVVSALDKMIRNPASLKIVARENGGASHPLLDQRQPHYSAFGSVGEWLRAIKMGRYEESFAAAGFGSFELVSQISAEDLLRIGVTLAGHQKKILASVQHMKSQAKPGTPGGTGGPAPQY
To be noted: EphB4(h), read-out: Inhibition rate. Summed up:
(§1)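 Profiling against 380 human recombinant kinases carried out by Eurofins at various compound concentrations.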

Experiment [2] has as its target T2, 380 human recombinant protein kinases (Homo sapiens, UniProt Q86V86).
T2 construct: purchased Eurofins (Celle Lévescault)
To be noted: Pim-3(h), read-out: Inhibition rate. Summed up:
as §1

Experiment [3] has as its target T3, 380 human recombinant protein kinases (Homo sapiens, UniProt Q04912).
T3 construct: purchased Eurofins (Celle Lévescault)
Particulars: Ron(h), read-out: Inhibition rate. An outline of the steps: as §1

The target of experiment [4] is T4, 380 human recombinant protein kinases (Homo sapiens, UniProt P14616).
T4 construct: purchased Eurofins (Celle Lévescault)
Particulars: IRR(h), read-out: Inhibition rate. Summed up:
as §1

In experiment [5] the target is T5, 380 human recombinant protein kinases (Homo sapiens, UniProt Q9Y2H1).
T5 construct: purchased Eurofins (Celle Lévescault)
Particulars: NDR2(h), read-out: Inhibition rate. Summed up:
as §1

The target of experiment [6] is T6, 380 human recombinant protein kinases (Homo sapiens, UniProt Q96BR1).
T6 construct: purchased Eurofins (Celle Lévescault)
T6 sequence (Q96BR1 1-496): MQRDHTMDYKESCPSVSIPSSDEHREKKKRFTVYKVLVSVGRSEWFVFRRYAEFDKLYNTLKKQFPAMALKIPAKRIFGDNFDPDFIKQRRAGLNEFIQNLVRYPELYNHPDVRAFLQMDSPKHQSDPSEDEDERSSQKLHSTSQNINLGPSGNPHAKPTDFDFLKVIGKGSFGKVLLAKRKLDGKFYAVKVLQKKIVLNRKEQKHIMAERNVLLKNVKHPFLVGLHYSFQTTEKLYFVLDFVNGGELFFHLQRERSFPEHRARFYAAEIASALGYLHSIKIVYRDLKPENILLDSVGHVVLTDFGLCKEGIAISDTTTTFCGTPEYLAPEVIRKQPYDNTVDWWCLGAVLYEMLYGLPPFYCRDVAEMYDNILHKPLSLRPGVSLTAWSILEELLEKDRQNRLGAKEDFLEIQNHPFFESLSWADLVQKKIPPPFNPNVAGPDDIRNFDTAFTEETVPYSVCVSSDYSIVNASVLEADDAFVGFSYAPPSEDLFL
To be noted: SGK3(h), read-out: Inhibition rate (%). An outline of the steps: as §1

The target of experiment [7] is T7, 380 human recombinant protein kinases (Homo sapiens, UniProt P15735).
T7 construct: purchased Eurofins (Celle Lévescault)
T7 sequence (P15735 1-406): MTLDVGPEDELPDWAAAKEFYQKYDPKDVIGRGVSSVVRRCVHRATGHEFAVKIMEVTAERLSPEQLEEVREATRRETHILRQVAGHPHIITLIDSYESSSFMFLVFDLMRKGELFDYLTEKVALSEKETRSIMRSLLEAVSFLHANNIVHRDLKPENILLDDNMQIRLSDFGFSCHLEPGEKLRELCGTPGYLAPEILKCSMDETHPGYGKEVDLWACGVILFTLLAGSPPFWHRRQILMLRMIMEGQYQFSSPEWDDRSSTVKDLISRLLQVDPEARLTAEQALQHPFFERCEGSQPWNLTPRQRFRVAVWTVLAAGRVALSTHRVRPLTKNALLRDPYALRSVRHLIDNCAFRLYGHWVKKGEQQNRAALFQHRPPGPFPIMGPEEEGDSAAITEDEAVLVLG
To be noted: PhKγ2(h), read-out: Inhibition rate. Summed up: as §1

T5 sequence (Q9Y2H1 whole entry): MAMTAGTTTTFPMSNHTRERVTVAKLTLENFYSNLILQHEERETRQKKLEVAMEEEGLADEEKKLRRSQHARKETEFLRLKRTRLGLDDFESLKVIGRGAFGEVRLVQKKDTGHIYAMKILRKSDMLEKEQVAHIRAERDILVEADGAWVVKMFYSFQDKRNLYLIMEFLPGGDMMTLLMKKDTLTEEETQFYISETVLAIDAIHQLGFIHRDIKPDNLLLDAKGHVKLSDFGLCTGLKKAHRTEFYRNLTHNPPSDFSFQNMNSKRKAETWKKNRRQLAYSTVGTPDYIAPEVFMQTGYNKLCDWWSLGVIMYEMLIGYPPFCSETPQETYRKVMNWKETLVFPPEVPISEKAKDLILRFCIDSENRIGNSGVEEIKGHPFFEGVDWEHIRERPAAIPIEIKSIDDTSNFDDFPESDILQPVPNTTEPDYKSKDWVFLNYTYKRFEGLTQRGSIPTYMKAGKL
T3 sequence (Q04912 25-1400): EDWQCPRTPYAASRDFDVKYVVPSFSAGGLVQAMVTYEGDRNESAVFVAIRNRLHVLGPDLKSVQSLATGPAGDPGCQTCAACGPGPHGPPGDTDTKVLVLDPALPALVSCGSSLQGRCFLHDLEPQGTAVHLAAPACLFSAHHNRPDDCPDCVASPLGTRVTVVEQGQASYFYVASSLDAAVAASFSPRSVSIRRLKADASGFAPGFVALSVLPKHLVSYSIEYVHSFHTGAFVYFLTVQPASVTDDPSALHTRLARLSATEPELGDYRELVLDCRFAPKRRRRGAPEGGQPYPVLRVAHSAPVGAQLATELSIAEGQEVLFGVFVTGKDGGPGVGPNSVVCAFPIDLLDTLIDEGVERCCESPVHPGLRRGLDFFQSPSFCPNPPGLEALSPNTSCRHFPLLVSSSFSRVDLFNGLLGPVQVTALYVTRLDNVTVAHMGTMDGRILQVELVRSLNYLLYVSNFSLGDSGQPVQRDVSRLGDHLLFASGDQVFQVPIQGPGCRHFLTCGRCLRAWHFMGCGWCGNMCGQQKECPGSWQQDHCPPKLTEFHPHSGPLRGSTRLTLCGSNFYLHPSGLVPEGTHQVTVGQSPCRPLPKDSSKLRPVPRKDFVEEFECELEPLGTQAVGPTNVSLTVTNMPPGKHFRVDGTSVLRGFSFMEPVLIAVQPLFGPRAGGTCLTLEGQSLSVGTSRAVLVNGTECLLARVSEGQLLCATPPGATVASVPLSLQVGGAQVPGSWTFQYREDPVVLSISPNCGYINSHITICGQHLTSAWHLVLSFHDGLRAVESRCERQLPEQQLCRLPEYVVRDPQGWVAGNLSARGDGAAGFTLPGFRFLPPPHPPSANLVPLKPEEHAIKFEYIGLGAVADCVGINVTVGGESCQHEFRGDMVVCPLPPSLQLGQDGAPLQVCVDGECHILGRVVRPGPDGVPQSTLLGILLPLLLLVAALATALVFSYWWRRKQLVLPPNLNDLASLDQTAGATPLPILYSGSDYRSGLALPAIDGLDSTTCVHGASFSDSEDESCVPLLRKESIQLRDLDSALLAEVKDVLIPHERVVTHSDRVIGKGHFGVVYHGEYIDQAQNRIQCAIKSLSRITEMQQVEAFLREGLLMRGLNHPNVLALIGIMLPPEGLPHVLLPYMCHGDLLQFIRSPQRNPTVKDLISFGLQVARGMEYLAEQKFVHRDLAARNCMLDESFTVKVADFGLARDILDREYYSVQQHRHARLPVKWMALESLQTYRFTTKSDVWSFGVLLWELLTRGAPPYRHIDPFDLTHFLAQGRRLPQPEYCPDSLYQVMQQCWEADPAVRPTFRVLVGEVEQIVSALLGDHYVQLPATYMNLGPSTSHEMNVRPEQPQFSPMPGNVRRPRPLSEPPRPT
T4 sequence (P14616 27-1297): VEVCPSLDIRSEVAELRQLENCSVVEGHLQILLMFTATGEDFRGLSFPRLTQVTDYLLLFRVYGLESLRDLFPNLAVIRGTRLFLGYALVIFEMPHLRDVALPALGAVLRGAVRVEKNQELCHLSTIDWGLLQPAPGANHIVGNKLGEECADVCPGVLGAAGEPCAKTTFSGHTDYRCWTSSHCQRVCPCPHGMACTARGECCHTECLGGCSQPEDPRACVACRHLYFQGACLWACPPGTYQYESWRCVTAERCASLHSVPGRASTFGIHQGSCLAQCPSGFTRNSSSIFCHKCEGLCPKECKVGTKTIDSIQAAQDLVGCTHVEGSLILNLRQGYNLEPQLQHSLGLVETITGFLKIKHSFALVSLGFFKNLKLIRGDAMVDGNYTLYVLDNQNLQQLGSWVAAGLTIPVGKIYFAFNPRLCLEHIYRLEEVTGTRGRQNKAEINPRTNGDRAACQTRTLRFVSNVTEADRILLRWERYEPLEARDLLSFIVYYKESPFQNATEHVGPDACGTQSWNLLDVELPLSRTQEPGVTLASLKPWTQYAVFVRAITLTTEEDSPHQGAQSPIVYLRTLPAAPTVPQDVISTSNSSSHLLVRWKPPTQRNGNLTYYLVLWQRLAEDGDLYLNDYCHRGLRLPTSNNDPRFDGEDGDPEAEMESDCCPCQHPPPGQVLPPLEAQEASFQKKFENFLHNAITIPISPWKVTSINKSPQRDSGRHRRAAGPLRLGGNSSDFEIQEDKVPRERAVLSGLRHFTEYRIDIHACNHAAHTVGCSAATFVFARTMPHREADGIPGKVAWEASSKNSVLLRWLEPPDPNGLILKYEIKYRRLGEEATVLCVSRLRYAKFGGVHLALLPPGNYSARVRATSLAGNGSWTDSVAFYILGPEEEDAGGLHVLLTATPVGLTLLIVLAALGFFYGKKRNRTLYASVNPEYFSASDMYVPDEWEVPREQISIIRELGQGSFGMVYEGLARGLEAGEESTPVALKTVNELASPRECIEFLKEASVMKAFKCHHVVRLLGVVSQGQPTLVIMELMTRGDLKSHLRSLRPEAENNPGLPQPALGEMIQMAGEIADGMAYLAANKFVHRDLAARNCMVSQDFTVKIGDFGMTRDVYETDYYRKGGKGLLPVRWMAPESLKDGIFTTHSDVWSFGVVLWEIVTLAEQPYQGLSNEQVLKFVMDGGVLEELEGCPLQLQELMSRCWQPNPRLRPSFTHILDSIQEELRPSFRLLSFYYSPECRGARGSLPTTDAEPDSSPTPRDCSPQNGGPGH

`C=CC(=O)Nc1cc(-c2cc(-c3cc4c([nH]3)CCNC4=O)ccn2)ccc1OC(F)(F)F` [compound 11]: the inhibition at 0.01 µM in experiment [1] (10 nM) is -4%; in experiment [2] (10 nM), -1%; in experiment [3] (10 nM), -4%; in experiment [4] (10 nM), 10%; in experiment [5] (10 nM) it was -5%; in experiment [6] (10 nM), -8%. Also, the inhibition at 0.01 µM in experiment [7] (10 nM) came out at 8%. In addition, the inhibition at 0.1 µM in experiment [1] (100 nM) is -15%; in experiment [2] (100 nM), 16%; in experiment [3] (100 nM), 26%; in experiment [4] (100 nM), 33%; in experiment [5] (100 nM) it was -10%; in experiment [6] (100 nM) it was 2%. In addition, the inhibition at 0.1 µM in experiment [7] (100 nM) stood at 1%. The inhibition at 1 µM was -4% in experiment [1] (1000 nM); 59% in experiment [2] (1000 nM); 77% in experiment [3] (1000 nM); 61% in experiment [4] (1000 nM); -2% in experiment [5] (1000 nM); -4% in experiment [6] (1000 nM). For the same compound, in experiment [7] (1000 nM), the inhibition at 1 µM is 2%.
